According to patent US11672868B2, “Bicyclic peptide ligands specific for MT1-MMP” (priority 2014, dated 2023):
Read-outs that look alike come from different tables or passages of the source. Marks after values point to notes of the source that are not given here. Numbered stars: 1 amine (or outer) side, 2 acyl side, 3 side chain; on linkers, the order of the positions; unused ones are H or OH. Bridge positions count the residues as written; N and C are the ends. Square brackets hold non-standard residues; d marks the D form. Peptide text beside a SMILES is read from it. * marks the point of attachment. X2 = COc1cc2cc(c1Cl)N(C)C(=O)C[C@H](OC(=O)[C@H](C)N(C)C(=O)CCC(C)SSC(C)CCC(=O)*)[C@]1(C)O[C@H]1[C@H](C)[C@@H]1C[C@@](O)(NC(=O)O1)[C@H](OC)/C=C/C=C(\C)C2; 1Nal = N[C@@H](Cc1cccc2ccccc12)C(=O)O; TBMB = c1c(C[*:1])cc(C[*:3])cc1C[*:2]; Tle = CC(C)(C)[C@H](N)C(=O)O; βAla = NCCC(=O)O; Sar = CNCC(=O)O

Key:
[1] = target: T1, MT1-MMP hemopexin domain (PEX) (Homo sapiens, UniProt P50281); test: Competition assay using fluorescence polarisation; format: binding
T1 construct: residues Cys319-Gly511 from the human gene; His6 (N); made in house; host or cells: HEK293 (transient, pEXPR-IBA42 vector)
Excerpt: (§1) Here, a pre-formed complex of PEX with the fluorescent PEX-binding tracer is titrated with free, non-fluoresceinated bicyclic peptide. Since all 17-69-based peptides are expected to bind at the same site, the titrant will displace the fluorescent tracer from PEX. Dissociation of the complex can be measured quantitatively, and the Kd of the competitor (titrant) to the target protein determined. The advantage of the competition method is that the affinities of non-fluoresceinated bicyclic peptides can be determined accurately and rapidly.
(§2) Subsequently, the non-fluorescent competitor bicyclic peptide (usually just the bicycle core sequence) is titrated, such that it displaces the fluorescent tracer from the target protein. The displacement of the tracer is measured and associated with a drop in fluorescence polarisation. The drop in fluorescence polarisation is proportional to the fraction of target protein bound with the non-fluorescent titrant, and thus is a measure of the affinity of titrant to target protein.
(§3) The raw data is fit to the analytical solution of the cubic equation that describes the equilibria between fluorescent tracer, titrant, and binding protein. The fit requires the value of the affinity of fluorescent tracer to the target protein, which can be determined separately by direct binding FP experiments (see previous section).

[2] = target: MT1-MMP hemopexin domain; test: FP competition, species cross-reactivity (dog); format: binding; settings: Table 13
Excerpt: as §1, §2
as §3, with “section). […]” for “section).”

[3] = Plasma stability, quantitative LC-MS (Method #2); format: in vitro ADME, mouse; settings: for half-life at 4 μM: mouse, quantitative LC-MS, incubation up to 24 hrs, 4 μM BDC, read-out: t1/2 (hrs) (mouse plasma) (converted)
Method: (§4) To obtain plasma stability of bicyclic peptides quantitatively, peptide stock solutions (200 μM in DMSO) were mixed with plasma (human or mouse), such that final concentrations were 10 μM. 40 μL samples were taken periodically up to 8 hrs and frozen at −80° C. Prior to LC-MS analysis, samples were defrosted, and mixed with 3 volumes (here, 120 μL) of 1:1 acetonitrile/MeOH water. The milky suspensions were centrifuged for 30 min at 13000 rpm, and peptide-containing supernatants were quantitated for doubly/triply charged species and MS/MS fragments thereof using a Waters Xevo TQ-D instrument, while using a plasma extracted standard curve of the same peptides as a reference. The half-life of degradation in plasma was used to assess the comparative stability of the molecules.

[4] = Plasma stability, quantitative LC-MS (Method #2); format: in vitro ADME, human; settings: human, human plasma
Method: as §4, with “[…] […]” for “To obtain plasma stability of bicyclic peptides quantitatively, peptide stock solutions (200 μM in DMSO) were mixed with plasma (human or mouse), such that final concentrations were 10 μM. 40 μL samples were taken periodically up to 8 hrs and frozen at −80° C.”

[5] = Plasma stability, quantitative LC-MS; format: in vitro ADME; settings: rat, incubation up to 24 hrs, 4 μM BDC, read-out: t1/2 (hrs) (rat plasma) (converted)
Method: (§5) The four BDCs were assessed for several in vitro parameters such as retention of potency to the human MT1-MMP hemopexin domain, stability in ex vivo mouse, rat and human plasma, and stability to reducing agents such as dithiothreitol.

[6] = Stability to reducing agent dithiothreitol (DTT); format: physicochemical; settings: Bicycle Drug Conjugates, quantitative LC-MS
Method: as §5

[7] = tested on: human lung squamous cell carcinoma line EBC-1; test: Efficacy in EBC-1 xenograft mice; format: in vivo, mouse
Method: In vivo efficacy of BT17BDC-17, BT17BDC-18, BT17BDC-19 and BT17BDC-20 All BDCs containing the stabilised bicycle core sequence were tested for their efficacies in in vivo mouse xenograft models, using the human lung squamous cell carcinoma line EBC-1.
The area under the curve (AUC) of tumour volume over time and BDC was taken and plotted against the corresponding dose group (FIG. 13).

[8] = Kellogg et al (2011), cited from earlier work

CC[C@H](C)[C@@H]1NC(=O)[C@H](CC(=O)O)NC(=O)[C@H](Cc2ccc(O)cc2)NC(=O)[C@H](Cc2ccccc2)NC(=O)[C@H](CC(=O)O)NC(=O)[C@H](CCC(=O)O)NC(=O)[C@@H]2CSCc3cc(cc(c3)CSC[C@H](NC(=O)[C@H](C)NC(=O)CN(C)C(=O)CN(C)C(=O)CN(C)C(=O)CN(C)C(=O)CN(C)C(=O)CN(C)C(=O)CN(C)C(=O)CN(C)C(=O)CN(C)C(=O)CN(C)C(=O)CN)C(=O)N[C@@H](Cc3ccc(O)cc3)C(=O)N[C@@H](CC(N)=O)C(=O)N[C@@H](CCC(=O)O)C(=O)N[C@@H](Cc3ccccc3)C(=O)NCC(=O)N2)CSC[C@@H](C(N)=O)NC1=O [17-69-07-N219, G-Sar10-A-(17-69-07)] (H-G[Sar][Sar][Sar][Sar][Sar][Sar][Sar][Sar][Sar][Sar]ACYNEFGCEDFYDIC-NH2; linker 13-19-26 via TBMB; C-terminus assumed)
Kd ([1]; Table 12, molecules selected for plasma stability assessment, read-out: Kd): 0.82 ± 0.09 nM | Kd ([1]; Table 13, Human/cyno MT1-MMP hemopexin domain, FP competition, read-out: Human/cyno (Kd)): 0.82 nM | Kd ([1]; Table 16, FP competition, footnote e: 17-69-07-N004 as tracer, read-out: Kd (nM) (Hemopexin domain)): 0.82 ± 0.09 nM | Kd ([1]; read-out: Kd, affinity to PEX / MT1-MMP): 0.82 nM | Kd [2]: 900 pM | half-life at 10 μM ([3]; ex vivo mouse plasma at 37° C., Method #2 (FIG. 1, FIG. 3A), read-out: half-life of the peptide in mouse plasma (converted)): 6 h | half-life at 4 μM ([3]; mouse plasma): 3.9 ± 0.3 h | half-life at 10 μM ([4]; 37° C., sentence prints mouse plasma, read-out: half-life of the peptide in plasma (FIG. 3B, human plasma stability) (converted)): 6 h | half-life at 4 μM ([4]; quantitative LC-MS, incubation up to 24 hrs, 4 μM BDC, read-out: t1/2 (hrs) (human plasma) (converted)): 30.3 ± 4.7 h | half-life at 4 μM ([5]; rat plasma (ex vivo)): 3.7 h

COc1cc2cc(c1Cl)N(C)C(=O)C[C@H](OC(=O)[C@H](C)N(C)C(=O)CCC(C)SSC(C)CCC(=O)NCCC(=O)N(C)CC(=O)N(C)CC(=O)N(C)CC(=O)N(C)CC(=O)N(C)CC(=O)N(C)CC(=O)N(C)CC(=O)N(C)CC(=O)N(C)CC(=O)N(C)CC(=O)N[C@@H](C)C(=O)N[C@H]1CSCc3cc4cc(c3)CSC[C@H](NC(=O)[C@@H](C)NC(=O)[C@H](Cc3cccc5ccccc35)NC(=O)[C@H](CCC(=O)O)NC(=O)[C@H](CC(N)=O)NC(=O)[C@@H](C)NC1=O)C(=O)N[C@@H](CCC(=O)O)C(=O)N[C@@H](CC(=O)O)C(=O)N[C@@H](Cc1ccccc1)C(=O)N[C@@H](Cc1ccc(O)cc1)C(=O)N[C@@H](CC(=O)O)C(=O)N[C@@H](C(C)(C)C)C(=O)N[C@H](C(N)=O)CSC4)[C@]1(C)O[C@H]1[C@H](C)[C@@H]1C[C@@](O)(NC(=O)O1)[C@H](OC)/C=C/C=C(\C)C2 (stereo partly drawn) [BT17BDC-20] ({X2-βAla}-[Sar][Sar][Sar][Sar][Sar][Sar][Sar][Sar][Sar][Sar]AC[dA]NE[1Nal][dA]CEDFYD[Tle]C-NH2; linker 12-18-25 via TBMB)
half-life at 4 μM ([3]; plasma): > 36 h | half-life at 4 μM ([5]; plasma): 34 ± 4 h | Relative Stability to DTT (BDC) [6]: 93 | efficacy in EBC-1 xenograft ([7]; EBC-1 xenograft): not efficacious | tolerability / body weight ([7]; EBC-1 xenograft): tolerated based on constant weight | ED50, effective dose to achieve 50% tumour AUC reduction ([7]; mouse bearing EBC-1 tumours, ± 95% confidence limit): 22 ± 13^b mg/kg | fold reduction in sensitivity to a reducing agent such as dithiothreitol ([8]; in the antibody drug conjugate context, compared to the non-hindered disulphide): 170 fold | Relative Stability to DTT (ADC) ([8]; values relate to antibody drug conjugates containing the same disulphide linker): 170
